Source: ChEMBL document CHEMBL1201862, “PubChem BioAssay data set” (2004)
The source made the active and inactive calls.

How the values were obtained:
[1] = molecular target: T1, Replicative DNA helicase DnaB (Mycobacterium tuberculosis, UniProt P9WMR3); assay: DnaB intein splicing inhibitors, dose response, biochemical, cell-free fluorescence (AID 449749); assay type: functional
T1 sequence (P9WMR3 whole entry): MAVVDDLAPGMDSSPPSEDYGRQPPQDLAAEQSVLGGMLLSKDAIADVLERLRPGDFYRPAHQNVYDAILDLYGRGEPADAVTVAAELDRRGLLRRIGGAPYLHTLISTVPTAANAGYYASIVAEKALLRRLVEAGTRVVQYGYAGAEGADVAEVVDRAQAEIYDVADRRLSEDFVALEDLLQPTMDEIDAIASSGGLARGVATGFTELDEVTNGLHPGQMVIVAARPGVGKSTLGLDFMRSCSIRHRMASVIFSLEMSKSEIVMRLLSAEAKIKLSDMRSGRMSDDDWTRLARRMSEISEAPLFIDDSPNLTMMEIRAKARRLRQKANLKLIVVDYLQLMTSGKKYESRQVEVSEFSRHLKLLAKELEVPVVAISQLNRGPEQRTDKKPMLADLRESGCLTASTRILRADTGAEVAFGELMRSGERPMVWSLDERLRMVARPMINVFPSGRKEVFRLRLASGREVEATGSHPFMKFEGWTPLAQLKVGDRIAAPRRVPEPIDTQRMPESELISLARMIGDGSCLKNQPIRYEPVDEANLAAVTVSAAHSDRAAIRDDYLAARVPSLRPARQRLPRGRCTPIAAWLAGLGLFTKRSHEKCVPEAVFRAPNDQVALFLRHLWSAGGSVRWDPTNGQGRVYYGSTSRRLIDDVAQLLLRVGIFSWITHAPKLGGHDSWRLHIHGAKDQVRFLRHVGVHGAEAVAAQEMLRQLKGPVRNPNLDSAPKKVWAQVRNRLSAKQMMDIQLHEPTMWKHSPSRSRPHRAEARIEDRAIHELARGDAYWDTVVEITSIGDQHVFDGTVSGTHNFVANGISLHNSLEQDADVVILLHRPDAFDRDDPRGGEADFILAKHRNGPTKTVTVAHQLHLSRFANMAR

Protein RecA = molecular target: T2, Protein RecA (Mycobacterium tuberculosis, UniProt P9WHJ3); assay: Fluorescence Cell-Free Homogeneous Dose Retest to Identify Inhibitors of RecA-Intein Splicing Activity. [Related pubchem assays (depositor defined):AID2097, AID2223, AID489010, AID492950]; assay type: functional
T2 sequence (P9WHJ3 whole entry): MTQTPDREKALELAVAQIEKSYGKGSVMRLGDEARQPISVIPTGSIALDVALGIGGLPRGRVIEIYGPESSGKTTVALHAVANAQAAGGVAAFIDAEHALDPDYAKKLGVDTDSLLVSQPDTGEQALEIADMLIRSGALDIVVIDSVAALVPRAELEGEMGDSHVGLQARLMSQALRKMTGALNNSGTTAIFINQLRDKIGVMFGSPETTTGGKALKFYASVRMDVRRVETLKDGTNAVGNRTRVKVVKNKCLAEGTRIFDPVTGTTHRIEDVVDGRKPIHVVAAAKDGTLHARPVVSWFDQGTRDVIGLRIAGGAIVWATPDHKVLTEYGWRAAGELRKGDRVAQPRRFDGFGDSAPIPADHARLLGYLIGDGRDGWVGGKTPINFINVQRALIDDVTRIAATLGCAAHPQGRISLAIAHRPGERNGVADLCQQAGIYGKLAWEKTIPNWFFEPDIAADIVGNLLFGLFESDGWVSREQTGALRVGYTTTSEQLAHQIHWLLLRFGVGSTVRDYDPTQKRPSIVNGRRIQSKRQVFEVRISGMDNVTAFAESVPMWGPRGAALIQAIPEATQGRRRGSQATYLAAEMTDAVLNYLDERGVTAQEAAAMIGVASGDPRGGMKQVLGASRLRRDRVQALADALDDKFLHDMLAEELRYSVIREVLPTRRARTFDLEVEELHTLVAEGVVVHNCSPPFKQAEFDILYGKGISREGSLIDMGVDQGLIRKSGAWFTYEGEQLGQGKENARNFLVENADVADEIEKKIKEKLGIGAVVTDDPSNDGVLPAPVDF

[2] = molecular target: T3, Rac GTPase-activating protein 1 (Homo sapiens, UniProt Q9H0H5); assay: blockers of MgcRacGAP-driven Rac1 GTP hydrolysis – biochemical, ADP Hunter fluorescence, primary and confirmatory, confirmation (AID 624330); assay type: functional
T3 sequence (Q9H0H5 whole entry): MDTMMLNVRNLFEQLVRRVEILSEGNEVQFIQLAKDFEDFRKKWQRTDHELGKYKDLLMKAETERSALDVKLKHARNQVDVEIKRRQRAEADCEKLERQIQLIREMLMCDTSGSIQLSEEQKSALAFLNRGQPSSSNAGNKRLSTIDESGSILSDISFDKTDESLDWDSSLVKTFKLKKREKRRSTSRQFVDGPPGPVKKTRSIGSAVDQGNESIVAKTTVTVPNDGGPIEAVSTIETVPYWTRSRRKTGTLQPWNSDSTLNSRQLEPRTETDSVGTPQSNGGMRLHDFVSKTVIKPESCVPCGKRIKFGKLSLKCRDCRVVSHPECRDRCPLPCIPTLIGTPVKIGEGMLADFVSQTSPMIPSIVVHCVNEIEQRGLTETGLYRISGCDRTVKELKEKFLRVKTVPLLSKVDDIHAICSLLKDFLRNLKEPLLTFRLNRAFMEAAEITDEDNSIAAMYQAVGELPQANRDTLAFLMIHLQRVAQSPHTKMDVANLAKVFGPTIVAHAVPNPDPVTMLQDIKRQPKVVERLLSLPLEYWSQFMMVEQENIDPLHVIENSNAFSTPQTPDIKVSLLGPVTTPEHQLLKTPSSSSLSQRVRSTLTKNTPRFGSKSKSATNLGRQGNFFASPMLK

[3] = molecular target: FAD-linked sulfhydryl oxidase ALR (Homo sapiens, UniProt P55789); assay: ALR-catalysed DTT oxidation blockers – biochemical, H2O2 detection, luminescence, cherry-pick, dose response (AID 493248)
[4] = Luminescence Cell-Based Dose Retest to Confirm Inhibitors of Cancer Stem Cells. [Related pubchem assays (depositor defined):AID2717, AID2721]; assay type: functional; settings: Homo sapiens
INS1 = assay: INS-1E survival protection against cytokine death – cell-based, luminescence, retest, dose response (AID 449756); assay type: functional; settings: Rattus norvegicus;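 also: cell death triggered by IL-1 beta plus TNF-alpha plus IFN-gamma mixture; protective hits raise ATP signal compared with cytokine alone wells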
[5] = molecular target: Luciferin 4-monooxygenase (Photinus pyralis, UniProt P08659); assay: inhibition of purified Photinus pyralis luciferase – biochemical, luminescence, dose response (AID 1891)
[6] = Luminescence Cell-Based Dose Confirmation HTS to Identify Inhibitors of Platelet Dense Granule Release. [Related pubchem assays: 1663 (Primary HTS), 1678 (Summary of Project)]; assay type: functional
H9c2 = assay: cells; assay type: functional, cell-based; settings: Rattus norvegicus, H9c2, Myocardium;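 also: confirmatory concentration-response retest of ultra-high-throughput screening hits for modulation of myocardial damage; cell death induced by hydrogen peroxide oxidative stress; compound pretreatment for 60 min then peroxide exposure for 2 h; potency is for protecting the cells against peroxide damage rather than for killing them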
BJ [7] = assay: BJ-TERT fibroblast viability loss – cell-based, RAS-independent, luminescence, dose response (AID 1933); assay type: functional; settings: Homo sapiens
BJ [8] = assay: cells; assay type: functional, cell-based; settings: Homo sapiens
BJ [9] = assay: BJ-TERT-LT-ST fibroblast viability loss – cell-based, RAS-independent, luminescence, dose response (AID 1935); assay type: functional; settings: Homo sapiens;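 also: BJ fibroblasts immortalized with TERT plus LT and ST oncogenes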
[10] = DRD fibroblast viability loss – cell-based, non-viral oncogenic, luminescence, dose response (AID 1934); assay type: functional; settings: Homo sapiens
[11] = viability of uninfected HEp-2 cells – cell-based, HTS, cytotoxicity control for RSV inhibitor project, dose response (AID 2410); assay type: functional; settings: human respiratory syncytial virus
[12] = blockers of HIV-1 envelope-mediated cell-cell fusion – cherry-pick, dose response (AID 652057); assay type: functional, cell-based
[13] = blockers of HIV-1 ZM109 envelope-driven cell-cell fusion – HeLa effector, CEM target cells, luciferase, cherry-pick, dose response (AID 652058); assay type: functional, cell-based;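 also: luciferase signal from HIV-1 Env mediated cell-cell fusion of effector and target cells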
[14] = molecular target: T4, RNA-binding protein pos-1 (Caenorhabditis elegans, UniProt G5EF15); assay: disruptors of C. elegans POS-1 RNA interaction – biochemical, fluorescence polarization, dose response (AID 1964);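 also: purified POS-1 fused to maltose binding protein made in E. coli; potency of compounds blocking POS-1 binding to fluorescent RNA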
T4 sequence (G5EF15 whole entry): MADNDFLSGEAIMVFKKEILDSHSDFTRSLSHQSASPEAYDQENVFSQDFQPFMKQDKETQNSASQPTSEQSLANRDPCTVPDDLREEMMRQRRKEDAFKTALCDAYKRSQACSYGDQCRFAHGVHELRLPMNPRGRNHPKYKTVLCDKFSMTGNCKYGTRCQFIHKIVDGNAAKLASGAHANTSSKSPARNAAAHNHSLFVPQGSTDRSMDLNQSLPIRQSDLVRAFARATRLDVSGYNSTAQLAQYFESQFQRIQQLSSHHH

[15] = molecular target: T5, Zinc finger protein mex-5 (Caenorhabditis elegans, UniProt Q9XUB2); assay: potency of MEX-5 RNA-binding blockers – biochemical, C. elegans, fluorescence polarization, dose response (AID 1960)
T5 sequence (Q9XUB2 whole entry): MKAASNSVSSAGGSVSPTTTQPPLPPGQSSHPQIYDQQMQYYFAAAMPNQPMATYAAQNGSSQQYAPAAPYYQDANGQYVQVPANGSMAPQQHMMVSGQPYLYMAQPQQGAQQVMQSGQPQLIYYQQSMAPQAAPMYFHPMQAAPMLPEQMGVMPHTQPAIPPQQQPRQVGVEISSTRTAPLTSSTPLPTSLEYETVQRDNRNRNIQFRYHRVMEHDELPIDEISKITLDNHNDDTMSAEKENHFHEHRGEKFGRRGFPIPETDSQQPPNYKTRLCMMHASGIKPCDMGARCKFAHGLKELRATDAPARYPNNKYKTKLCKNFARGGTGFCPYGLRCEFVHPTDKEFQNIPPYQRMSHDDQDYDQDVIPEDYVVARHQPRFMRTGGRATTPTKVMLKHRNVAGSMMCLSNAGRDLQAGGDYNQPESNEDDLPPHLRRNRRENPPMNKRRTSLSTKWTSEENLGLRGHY

Large T antigen = Large T antigen (Simian virus 40, UniProt P03070); assay type: functional, Betapolyomavirus macacae;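 also: Confirmatory-stage PubChem screen for compounds that inhibit SV40 T antigen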
Chain of Large T antigen (P03070 whole entry): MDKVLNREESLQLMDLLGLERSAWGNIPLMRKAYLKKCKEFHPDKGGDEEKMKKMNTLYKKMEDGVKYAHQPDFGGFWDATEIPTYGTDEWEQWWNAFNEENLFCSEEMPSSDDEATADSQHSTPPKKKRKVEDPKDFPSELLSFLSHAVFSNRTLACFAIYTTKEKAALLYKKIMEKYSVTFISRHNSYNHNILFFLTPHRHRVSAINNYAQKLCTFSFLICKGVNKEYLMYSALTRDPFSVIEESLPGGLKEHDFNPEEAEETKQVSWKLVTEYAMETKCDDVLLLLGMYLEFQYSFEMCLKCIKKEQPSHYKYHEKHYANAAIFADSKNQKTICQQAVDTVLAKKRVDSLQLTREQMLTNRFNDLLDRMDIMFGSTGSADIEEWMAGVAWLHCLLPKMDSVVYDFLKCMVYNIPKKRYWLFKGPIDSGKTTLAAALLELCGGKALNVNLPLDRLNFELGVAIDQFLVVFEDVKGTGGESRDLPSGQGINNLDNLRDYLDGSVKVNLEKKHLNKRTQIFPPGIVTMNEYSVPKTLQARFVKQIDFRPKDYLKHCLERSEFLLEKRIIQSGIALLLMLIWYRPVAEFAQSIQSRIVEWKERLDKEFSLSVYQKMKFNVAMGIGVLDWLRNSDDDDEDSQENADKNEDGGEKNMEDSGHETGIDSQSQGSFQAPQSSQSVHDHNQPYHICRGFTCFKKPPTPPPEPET

Chain of FAD-linked sulfhydryl oxidase ALR (P55789 whole entry): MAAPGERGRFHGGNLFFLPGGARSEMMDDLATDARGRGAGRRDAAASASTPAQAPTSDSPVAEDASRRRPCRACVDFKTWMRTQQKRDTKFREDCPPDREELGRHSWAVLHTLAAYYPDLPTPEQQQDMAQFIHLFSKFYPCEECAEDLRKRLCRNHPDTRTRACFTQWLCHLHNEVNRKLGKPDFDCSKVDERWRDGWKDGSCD
Chain of Luciferin 4-monooxygenase (P08659 whole entry): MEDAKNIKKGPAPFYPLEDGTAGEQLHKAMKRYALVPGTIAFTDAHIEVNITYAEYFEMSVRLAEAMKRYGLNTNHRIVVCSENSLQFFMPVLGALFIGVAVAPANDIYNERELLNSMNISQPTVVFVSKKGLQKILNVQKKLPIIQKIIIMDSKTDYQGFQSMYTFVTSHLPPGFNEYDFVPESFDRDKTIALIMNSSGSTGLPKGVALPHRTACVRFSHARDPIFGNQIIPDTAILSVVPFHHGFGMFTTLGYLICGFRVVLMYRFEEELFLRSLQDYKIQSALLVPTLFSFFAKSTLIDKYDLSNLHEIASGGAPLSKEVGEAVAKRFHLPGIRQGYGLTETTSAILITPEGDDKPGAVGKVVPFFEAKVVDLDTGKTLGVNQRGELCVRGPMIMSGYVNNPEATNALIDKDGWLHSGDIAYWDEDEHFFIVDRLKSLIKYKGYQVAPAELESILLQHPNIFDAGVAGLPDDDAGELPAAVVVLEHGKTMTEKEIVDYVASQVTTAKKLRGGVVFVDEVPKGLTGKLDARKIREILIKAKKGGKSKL

N#Cc1c(N)n(CCOC(=O)c2ccc(Cl)cc2)c2nc3ccccc3nc12
AC50 [1]: 3.18 µM (active)
EC50 (Protein RecA): 1.8 µM (active)

C=CCn1c(SCC(=O)Nc2ccc(N(C)C)cc2)nnc1-c1cccc(C)c1
IC50 [2]: 42.8 µM (active)

COc1ccc(-c2cc(-c3nnc(S)n3-c3ccccc3OC)[nH]n2)cc1
AC50 [3]: 41.1 µM (active)

O=C(C#Cc1ccccc1)Nc1cccc(F)c1
AC50 [4]: 2.35 µM (active)
AC50 [3]: 2 µM (active)
AC50 (INS1): 8.05 µM (active)

O=C(c1[nH]nc2c1CCC2)N1CCCC(Nc2cccc(F)c2)C1 (centres undefined)
AC50 [3]: 19.5 µM (active)

COc1cc(-c2nnc(-c3cc(OC)c(OC)c(OC)c3)o2)cc(OC)c1OC
EC50 [5]: > 112 µM (not active)
EC50 [6]: 41 µM (active)
IC50 (H9c2): > 79 µM (inactive)

CSc1ccc(CN2CCC(N3CC(C)OC(C)C3)CC2)cc1 (centres undefined)
IC50 [2]: 72.4 µM (active)

COc1cc(N=Nc2c(C)n(C)n(-c3ccccc3)c2=O)ccc1N
IC50 [2]: 43.4 µM (active)

COC(=O)N1CCc2c(sc(NC(=O)C3=COCCO3)c2C#N)C1
EC50 (BJ [7]): 8.87 µM (inconclusive)
EC50 (BJ [8]): 48.9 µM (active)
EC50 (BJ [9]): 16.1 µM (active)
EC50 [10]: 12.5 µM (active)

COc1cccc(-c2ncc3ccccn23)c1
CC50 [11]: 44.1 µM (active)
IC50 [2]: 136 µM (active)

COCc1n[nH]c2c1C(c1ccccc1OC)C(C#N)=C(N)O2 (centres undefined)
AC50 [1]: 22 µM (active)
EC50 (Protein RecA): 4.77 µM (active)

N#CCSc1nc2cc(C(=O)N3CCC(C(N)=O)CC3)ccc2c2nc3ccccc3n12
IC50 (H9c2): > 79 µM (inactive)

NS(=O)(=O)c1ccc(CCNC(=O)CN2CCN(c3ccccc3O)CC2)cc1
AC50 [3]: 3.94 µM (active)

COc1cc(-c2nc3cnccn3c2NC(C)(C)CC(C)(C)C)ccc1O
AC50 [3]: 4.22 µM (active)

O=c1[nH]n(Cc2ccccc2)c(=O)c2ccccc12
IC50 (H9c2): > 79 µM (inactive)

CCOc1cc(C2C(C#N)=C(N)Oc3[nH]nc(CC)c32)ccc1OCCN1CCOCC1 (centres undefined)
AC50 [1]: 27.2 µM (active)
EC50 (Protein RecA): 7.2 µM (active)

O=C1c2cc([N+](=O)[O-])ccc2-c2ncccc21
EC50 (BJ [7]): 24.4 µM (active)
EC50 (BJ [8]): > 150 µM (not active)
EC50 (BJ [9]): > 150 µM (not active)
EC50 [10]: > 150 µM (not active)
AC50 [1]: 36.7 µM (active)
EC50 (Protein RecA): 11.1 µM (active)

O=C(CN(c1ccc2c(c1)OCCO2)S(=O)(=O)c1ccccc1)Nc1ccc2c(c1)OCO2
IC50 (H9c2): > 79 µM (inactive)

Cn1c(=O)c2c(nc(NCc3ccc4c(c3)OCO4)n2C)n(C)c1=O
IC50 (H9c2): 36.1 µM (inactive)

COC(=O)c1ccc(CSc2nc3ccccc3c(=O)n2Cc2ccco2)o1
AC50 [3]: 4.51 µM (active)

Cc1cc(-c2cc(C)c(N)cc2C)c(C)cc1N
IC50 [2]: 101 µM (active)

COc1ccc(NC2CCCN(C(=O)CCc3cccc(F)c3)C2)cc1 (centres undefined)
IC50 [2]: 74.6 µM (active)

O=C(COC(=O)Cc1nnc(O)c2ccccc12)Nc1c(Br)cc([N+](=O)[O-])cc1Br
IC50 (H9c2): > 79 µM (inactive)

CCN1C(=O)[C@H]2[C@H]3CN=C(SCc4ccc(C#N)cc4)N3[C@@](Cc3ccccc3)(C(=O)OC)[C@H]2C1=O
IC50 (H9c2): > 79 µM (inactive)

CCOC(=O)c1cc(-c2ccc(/C=N\n3cnnc3)o2)ccc1Cl
IC50 (H9c2): > 79 µM (inactive)

Cc1cc(-c2nnc(S)n2/N=C/c2ccc(Cl)c([N+](=O)[O-])c2)[nH]n1
AC50 [3]: 3.45 µM (active)

C[C@@H]1CN([C@H](C)CO)C(=O)c2cc(C#Cc3ccncc3)cnc2O[C@@H]1CN(C)S(=O)(=O)c1ccccc1F
AC50 [12]: 30 µM (active)
AC50 [13]: 25.1 µM (active)

COc1cc(/C=N/Nc2nc(O)nnc2C)ccc1O
EC50 [14]: 56.8 µM (active)
EC50 [15]: 31.1 µM (active)
IC50 (Large T antigen): 6.41 µM (active)
AC50 [3]: 4.13 µM (active)

COc1ccc(NC(=O)NS(=O)(=O)c2ccc(C)cc2)cc1OC
IC50 [2]: 36 µM (active)
